Experimental findings from paper doi:10.1101/2021.05.05.442828v1 (biorxiv, 2021) are described below.

Common to all, as to type: cell-based
The target of data set [1] is KCa1.1 (hKCa1.1, KCNMA) (Homo sapiens, UniProt Q12791). Kind of data set: two-electrode voltage clamp, Xenopus laevis oocytes. The following applies: Kulori solution, pH 7.4; n=5. (In general: Two-electrode voltage clamp is typically applied to oocytes expressing channels or transporters.)
For data set [2], the target named is TRPM8 (hTRPM8) (Homo sapiens, UniProt Q7Z2W7). Put plainly: Fluo-4 calcium flux assay, HEK-293 TRPM8 cells. The note with it: antagonist mode; 30 min incubation; normalized to icilin (50 µM) response. (A change in cytosolic calcium serves as a functional read-out for many receptors and channels.)
Chain of TRPM8 (hTRPM8) (Q7Z2W7 whole entry): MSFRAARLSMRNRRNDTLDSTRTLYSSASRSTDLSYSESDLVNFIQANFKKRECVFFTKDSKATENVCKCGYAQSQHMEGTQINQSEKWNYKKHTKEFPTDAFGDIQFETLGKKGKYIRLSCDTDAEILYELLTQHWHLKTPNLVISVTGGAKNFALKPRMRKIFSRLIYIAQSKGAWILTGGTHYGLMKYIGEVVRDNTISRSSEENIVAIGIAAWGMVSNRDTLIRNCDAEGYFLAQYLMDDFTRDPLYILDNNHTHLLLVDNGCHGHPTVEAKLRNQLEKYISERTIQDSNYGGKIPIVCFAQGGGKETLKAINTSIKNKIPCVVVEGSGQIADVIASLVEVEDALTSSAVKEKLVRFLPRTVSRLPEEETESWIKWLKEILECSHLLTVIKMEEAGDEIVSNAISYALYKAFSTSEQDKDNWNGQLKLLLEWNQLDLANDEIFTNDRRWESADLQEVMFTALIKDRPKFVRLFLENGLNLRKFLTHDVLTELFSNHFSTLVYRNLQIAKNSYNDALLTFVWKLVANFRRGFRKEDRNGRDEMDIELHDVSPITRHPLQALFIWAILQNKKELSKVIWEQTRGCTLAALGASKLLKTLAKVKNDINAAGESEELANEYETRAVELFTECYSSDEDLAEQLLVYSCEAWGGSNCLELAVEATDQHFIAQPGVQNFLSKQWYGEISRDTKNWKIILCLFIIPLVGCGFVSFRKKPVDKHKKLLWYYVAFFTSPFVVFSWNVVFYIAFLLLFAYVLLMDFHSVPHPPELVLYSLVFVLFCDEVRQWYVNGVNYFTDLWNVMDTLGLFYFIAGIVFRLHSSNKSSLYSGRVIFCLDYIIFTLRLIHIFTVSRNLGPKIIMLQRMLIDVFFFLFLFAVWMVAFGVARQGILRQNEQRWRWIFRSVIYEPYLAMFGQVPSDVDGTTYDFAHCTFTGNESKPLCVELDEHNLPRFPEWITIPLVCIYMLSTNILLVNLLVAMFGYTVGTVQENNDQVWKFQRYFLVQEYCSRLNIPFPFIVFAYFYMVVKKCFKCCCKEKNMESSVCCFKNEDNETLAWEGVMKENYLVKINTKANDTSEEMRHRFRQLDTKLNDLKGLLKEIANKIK
Data set [3] addresses KV11.1 (hERG) (Homo sapiens, UniProt Q12809). Put plainly: automated patch clamp. (In general: In patch-clamp work, channel activity is measured electrically.)

Chain of KCa1.1 (hKCa1.1, KCNMA) (Q12791 whole entry): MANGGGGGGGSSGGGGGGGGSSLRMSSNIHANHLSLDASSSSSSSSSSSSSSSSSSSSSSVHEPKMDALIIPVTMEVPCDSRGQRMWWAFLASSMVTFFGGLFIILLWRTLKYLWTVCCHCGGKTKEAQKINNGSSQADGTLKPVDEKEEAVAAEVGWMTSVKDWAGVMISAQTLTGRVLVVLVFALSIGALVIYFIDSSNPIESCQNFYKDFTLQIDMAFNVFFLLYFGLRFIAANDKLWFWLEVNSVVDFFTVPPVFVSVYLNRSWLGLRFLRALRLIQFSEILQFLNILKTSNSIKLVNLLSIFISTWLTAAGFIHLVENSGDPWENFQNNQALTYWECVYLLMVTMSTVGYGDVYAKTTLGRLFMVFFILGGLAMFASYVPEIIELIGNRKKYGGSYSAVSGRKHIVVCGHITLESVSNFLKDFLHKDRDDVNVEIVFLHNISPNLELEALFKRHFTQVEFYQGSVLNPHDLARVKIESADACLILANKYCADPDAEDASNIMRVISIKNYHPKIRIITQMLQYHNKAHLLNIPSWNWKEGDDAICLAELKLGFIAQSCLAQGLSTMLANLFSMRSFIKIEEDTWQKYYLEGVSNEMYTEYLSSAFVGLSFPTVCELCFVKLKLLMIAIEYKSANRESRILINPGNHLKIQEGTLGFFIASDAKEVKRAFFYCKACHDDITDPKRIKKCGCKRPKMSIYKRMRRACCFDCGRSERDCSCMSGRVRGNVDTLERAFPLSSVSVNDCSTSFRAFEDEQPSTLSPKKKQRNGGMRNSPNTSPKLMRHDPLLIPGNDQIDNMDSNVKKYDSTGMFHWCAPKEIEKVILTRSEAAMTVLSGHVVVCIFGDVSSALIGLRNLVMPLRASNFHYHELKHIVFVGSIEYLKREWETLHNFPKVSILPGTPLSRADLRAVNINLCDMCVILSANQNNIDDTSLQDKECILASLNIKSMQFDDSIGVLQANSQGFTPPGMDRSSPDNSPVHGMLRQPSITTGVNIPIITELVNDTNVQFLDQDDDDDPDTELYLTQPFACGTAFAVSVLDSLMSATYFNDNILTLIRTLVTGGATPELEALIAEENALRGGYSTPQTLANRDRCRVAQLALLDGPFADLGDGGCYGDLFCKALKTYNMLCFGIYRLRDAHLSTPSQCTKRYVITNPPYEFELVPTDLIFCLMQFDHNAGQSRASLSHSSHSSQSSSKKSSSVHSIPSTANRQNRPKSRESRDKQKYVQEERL
Chain of KV11.1 (hERG) (Q12809 whole entry): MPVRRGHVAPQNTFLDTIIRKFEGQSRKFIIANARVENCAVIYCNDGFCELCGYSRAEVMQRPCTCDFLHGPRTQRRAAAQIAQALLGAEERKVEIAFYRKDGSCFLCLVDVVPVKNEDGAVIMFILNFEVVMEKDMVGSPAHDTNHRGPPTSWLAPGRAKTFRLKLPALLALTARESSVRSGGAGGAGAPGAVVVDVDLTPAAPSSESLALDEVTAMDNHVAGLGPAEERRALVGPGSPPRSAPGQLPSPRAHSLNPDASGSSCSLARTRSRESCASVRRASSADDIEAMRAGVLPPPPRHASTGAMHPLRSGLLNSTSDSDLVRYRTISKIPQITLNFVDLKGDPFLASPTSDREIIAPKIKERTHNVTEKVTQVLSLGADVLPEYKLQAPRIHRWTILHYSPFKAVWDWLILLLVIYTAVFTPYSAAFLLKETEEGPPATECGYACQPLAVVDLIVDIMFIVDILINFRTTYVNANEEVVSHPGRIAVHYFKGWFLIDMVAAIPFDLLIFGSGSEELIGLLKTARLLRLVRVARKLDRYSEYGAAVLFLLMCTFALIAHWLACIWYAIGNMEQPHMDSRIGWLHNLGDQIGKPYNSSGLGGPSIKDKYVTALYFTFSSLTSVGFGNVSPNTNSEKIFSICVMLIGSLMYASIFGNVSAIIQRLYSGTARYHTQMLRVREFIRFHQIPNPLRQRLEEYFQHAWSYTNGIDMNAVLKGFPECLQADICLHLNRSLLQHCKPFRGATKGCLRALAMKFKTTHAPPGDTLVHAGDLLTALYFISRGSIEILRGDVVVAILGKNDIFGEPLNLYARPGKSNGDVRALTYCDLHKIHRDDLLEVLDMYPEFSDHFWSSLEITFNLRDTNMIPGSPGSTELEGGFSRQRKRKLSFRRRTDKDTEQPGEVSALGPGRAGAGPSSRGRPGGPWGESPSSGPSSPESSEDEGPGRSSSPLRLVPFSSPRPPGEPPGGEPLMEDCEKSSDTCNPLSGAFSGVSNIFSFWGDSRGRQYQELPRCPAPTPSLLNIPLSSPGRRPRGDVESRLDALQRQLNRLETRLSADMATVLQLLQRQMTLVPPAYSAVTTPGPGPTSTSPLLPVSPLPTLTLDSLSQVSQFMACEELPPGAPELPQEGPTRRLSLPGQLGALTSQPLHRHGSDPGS

The term % inhibition denotes the share of the control response that was lost under treatment. A word on the IC50: it is the point on the concentration scale where inhibition reaches its midpoint. On to `COc1c(I)cc(CCN)cc1I` [DIMTA, 2-(3,5-diiodo-4-methoxyphenyl)ethan-1-amine], for which the “% inhibition at 5 μM” value in data set [1] is 18 ± 5%. Besides, the figures for the concentration for half-maximal inhibition (IC50) in data set [2] and in data set [3] were 112 µM and 18.7 ± 0.1 µM, respectively.
